Assay results reported in EPA's ToxValDB 9.5.
Values after ≈ are worked out from the molar mass of the structure shown. Values joined by “and” are separate entries in the source; they are usually repeats but may differ in a detail not shown here. Equal entries are not always repeated.

Key:
[1] = test system: Canidae; conditions: chronic; duration: 1 years; oral; diet; M/F; Dog Other; decreased prostate weight + Increased RBC Heinz bodies
[2] = test system: Rattus norvegicus; conditions: for LD50 / LC50: acute
[3] = test system: Oryctolagus sp.; conditions: for LD50: dermal; for NOAEL: gavage
[4] = test system: Mus musculus; conditions: for LC50 / LD50: acute; for LD50: injection
[5] = test system: Rattus norvegicus; conditions: for LEL: uterotrophic, Active; for LOEL / NOEL: Hershberger
[6] = test system: Rattus norvegicus; conditions: chronic; duration: 2 years; oral; diet; M/F; neurotoxicity
[7] = duration: 3 days, injection, subcutaneous
[8] = chronic, duration: 104 weeks, oral, diet, CDA
[9] = subchronic, duration: 90 days, oral, gavage, CDA Sprague-Dawley
[10] = duration: 5 days, oral, gavage, Sprague-Dawley, active + Androgenic + androgenic + advanced age of PPS, histopathology effects on reproductive tissues
[11] = duration: 10 days, injection, subcutaneous, Wistar, active + Androgenic + androgenic

## CC(C)NC(=O)N1CC(=O)N(c2cc(Cl)cc(Cl)c2)C1=O
[1]
  LEL: 15 mg/kg-day
  NOEL: 4.2 mg/kg-day

## C=C(C)C(=O)OCCN(C)C [2-(Dimethylamino)ethyl methacrylate]
[2]; dermal, Sprague-Dawley
  LD50: > 2000 mg/kg
[2]; inhalation
  LC50: 0.62 µg/mL (≈ 3.94 µM)
[2]; oral, gavage, Crj:CD
  LD50: > 2000 mg/kg
[2]; reproduction developmental, duration: 41 days, oral, gavage, Crj:CD, generation: F0
  NOAEL: 200 mg/kg-day
[2]; short-term, duration: 3 weeks, inhalation
  NOAEL: 643 mg/m3
[2]; subchronic, duration: 41 days, oral, gavage, Crj:CD
  NOAEL: 200 mg/kg-day
[3]; acute
  LD50: > 3000 mg/kg
[4]; inhalation
  LC50: 1.8 µg/mL (≈ 11.4 µM)
[4]; intraperitoneal
  LD50: 25 mg/kg

## Cc1cc(C)cc(O)c1 [3,5-Dimethylphenol]
[2]; oral
  LC50: 608 mg/kg
[3]; acute, oral
  LC50: 1310 mg/kg
[4]; oral
  LC50: 477 mg/kg

## CC(C)(C)c1cc(C(C)(C)c2ccc(O)c(C(C)(C)C)c2)ccc1O [4,4'-Propane-2,2-diylbis(2-tert-butylphenol)]
[4]; Intraperitoneal
  LD50: 40 mg/kg
[4]; intraperitoneal
  LD50: 40 mg/kg

## CCC(C)(C)c1ccc(O)cc1 [4-(2-Methylbutan-2-yl)phenol]
[5]; [7]
  LEL: 200 mg/kg-day and 202 mg/kg-day

## CC(C)(C)C1CCC(O)CC1 (stereo not drawn) [4-tert-Butylcyclohexanol]
[2]; oral
  LD50: 4200 mg/kg
[2]; short-term, duration: 28 days, oral, gavage, Wistar
  LOAEL: 150 mg/kg-day
[3]; acute
  LD50: > 5000 mg/kg
[4]; Intraperitoneal, CF1
  LD50: ≥ 50 mg/kg and ≤ 100 mg/kg

## CC1(C)NC(=O)NC1=O [5,5-Dimethylhydantoin]
[2]; inhalation
  LC50: > 14.7 µg/mL
[2]; oral, gavage, Sprague-Dawley
  LD50: > 5000 mg/kg
[2]; chronic, duration: 24 months, oral, diet, Crl:CDABR
  NOAEL: > 1000 mg/kg-day
[2]; [8]
  LOAEL: > 1000 mg/kg-day
  NOAEL: 1000 mg/kg-day
[2]; developmental, duration: 14 days, oral, gavage, Sprague-Dawley COBS CD
  NOAEL: ≤ 2000 mg/kg-day
[2]; developmental, oral, gavage, Crl:CD(SD) BR
  NOAEL: 250 mg/kg-day
[2]; reproduction developmental, duration: 10 weeks, oral, diet, CD, generation: F0
  NOAEL: 20000 ppm
[2]; reproduction developmental, duration: 10 weeks, oral, diet, CD, generation: F1
  NOAEL: 20000 ppm
[2]; reproduction developmental, oral, gavage, Crl:CD(SD) BR, generation: F0
  NOAEL: 1000 mg/kg-day
[2]; reproduction developmental, oral, gavage, F, Crl:CD(SD) BR
  NOAEL: 1000 mg/kg-day
[2]; subchronic, duration: 13 weeks, oral, gavage, Sprague-Dawley (CRl: CDBR)
  NOAEL: 1000 mg/kg-day
[2]; [9]
  LOAEL: 5000 mg/kg-day
  NOAEL: 2000 mg/kg-day
[3]; acute, New Zealand
  LD50: > 20000 mg/kg
[3]; acute, occlusive, New Zealand
  LD50: > 3000 mg/kg
[3]; developmental, duration: 13 days, oral, New Zealand
  NOAEL: 100 mg/kg-day
[3]; reproduction developmental, duration: 13 days, oral, F, New Zealand
  NOAEL: 500 mg/kg-day
[4]; short-term, duration: 28 days, oral, diet, F, CD1
  NOAEL: 50000 ppm
[4]; subchronic, duration: 13 weeks, oral, diet, CD1
  LOAEL: 9850 mg/kg-day

## C=C[C@@]12CCc3cc(O)ccc3[C@H]1CC[C@@]1(C)[C@H]2CC[C@@H]1O [8beta-Vinylestra-1,3,5(10)-triene-3,17beta-ol]
[5]; duration: 12 days, injection, subcutaneous, Wistar, active + Androgenic + androgenic
  LOEL: 100 mg/kg-day

## C[C@]12CCC(=O)C=C1CC[C@@H]1[C@@H]2CC[C@@]2(C)[C@H]1CC[C@]2(C)O [17-Methyltestosterone]
[5]; [10]
  LOEL: 80 mg/kg-day and 100 mg/kg-day
  NOEL: 20 mg/kg-day
[5]; duration: 7 days, injection, subcutaneous, Sprague-Dawley, androgenic
  LOEL: 0.16 mg/kg-day
[5]; [7]
  LEL: 10 mg/kg-day
[5]; duration: 4 days, injection, subcutaneous
  LEL: 0.5 mg/kg-day
[5]; duration: 14 days, oral
  LEL: 3 mg

## CC[C@@H](C(C)C)[C@@H](O)[C@H](O)[C@@H](C)[C@H]1CC[C@H]2[C@@H]3COC(=O)[C@H]4C[C@H](O)[C@H](O)C[C@]4(C)[C@H]3CC[C@]12C [28-Homobrassinolide]
[5]; [11]
  LOEL: 4 mg/kg-day
  NOEL: 0.4 mg/kg-day

## CC/C(=C(\c1ccc(O)cc1)c1ccc(OCCN(C)C)cc1)c1ccccc1 [(Z)-4-Hydroxytamoxifen]
[5]; [7]
  LEL: 0.00016 mg/day

## c1ccc2cc3c(ccc4ccccc43)cc2c1 [Benz(a)anthracene]
[5]; [7]
  LEL: 1 mg/kg-day

## CN(C)C(=S)SSC(=S)N(C)C [Bis(dimethylaminothiocarbonyl) disulfide]
[2]; dermal
  LD50: > 5000 mg/kg
[2]; inhalation, particle
  LC50: > 6.22 µg/mL
[2]; oral, gavage, Sprague-Dawley
  LD50: 1080 mg/kg
[2]; reproduction developmental, duration: 10 days, oral, gavage, Crl:CD1, generation: F1
  NOAEL: 7.5 mg/kg-day
[2]; reproduction developmental, duration: 10 days, oral, gavage, F
  NOAEL: > 30 mg/kg-day
[2]; reproduction developmental, duration: 10 days, oral, gavage, F, Crl:CD1
  NOAEL: 7.5 mg/kg-day
[2]; reproduction developmental, duration: 10 days, oral, gavage, generation: F1
  NOAEL: 7.5 mg/kg-day
[2]; reproduction developmental, duration: 81 days, oral, diet, generation: F1
  NOAEL: 60 ppm and 180 ppm
[2]; subchronic, duration: 90 days, oral, diet, F
  NOAEL: 2.5 mg/kg-day
[2]; subchronic, duration: 90 days, oral, diet, M
  NOAEL: 2.5 mg/kg-day
[3]; acute
  LD50: ≥ 2000 mg/kg
[3]; acute, New Zealand
  LD50: > 7940 mg/kg
[3]; reproduction developmental, duration: 14 days, oral, F, New Zealand
  NOAEL: 5 mg/kg-day
[3]; reproduction developmental, duration: 14 days, oral, New Zealand, generation: F1
  NOAEL: 5 mg/kg-day
[6]
  LEL: 15 mg/kg-day
  NOEL: 5 mg/kg-day
